Assay results taken from patent US20090288225A1, “Novel Aromatic Acyltransferase Genes” (Aomori Prefecture, priority 2006, published 2009).

B1: CtSCPL1: butterfly pea SCPL acyltransferase, 487 amino acid residues, SEQ ID NO: 2 (protein)
chain: MAAFSSTHSACGILLLPLVVSSLICFQLASCGTIVEFLPGFDGPLPFVLETGYVGVGEGEDVQVFYYFVESENNPNEDPLMLWLTGGPGCSAFSGLALEIGPLIFKREEYNGGLPNLILRPHSWTKVSSIIFVDLPVSTGFTYARTDAAAQRSDWTLVHHAHEFLRKWLIDHPKFLQNELYIGGDSYSGIPIPVIVQEISQENEKGIQPWINLQGYILGNAITTRREKGYSIPFAHGMALISDELYESLRKNCKGEYLNVDPENVLCSRDIDSYSKATSRISFAHILERTCNSGDIKTSLRRSTIQRHHTKKFLNTNLKLPPLTCRTYANFQCGLWANDDNVRSALHIHKGSIGEWHRCSIRLPFTSDIPNSFEYHVNLSRKGYYRSLIYSGDHDMMVPFLGTQAWIRSLNYSIVDDWRPWNTNGQVAGYTRTYSNRMTYATIKGGGHTAPEFKPEECFAMYSRWISKRPLYENNTMSSYTNLASIL
modifications: Clitoria ternatea cv. Double Blue; Amino acid sequence of 1-O-acyl-Beta-D-glucose anthocyanin-O-acyltansferase
B2: LeGT13-20: lobelia 1-O-acyl-β-D-glucose synthase, 486 amino acid residues, SEQ ID NO: 16 (protein)
chain: MGSLQGTTTVENLTHVFLVSFPGQGHVNPLLRLGKILAFKGLLVTFSAPEMVGEIIKGANKYISDDELTPIGDGMIRFEFFSDGLGNTKEDNSLRGNMDLYMPQLATFAKKSLSEILIKHEKHGRPVACLINNPFIPWISELAEEFNIPSAVLWVQSCASFSAYYHYHHGLVPFPTENEPERDVQLPNMPLLKYDEIPGFLLPSSPYGFLRRAILGQFKLLSKPICILVESFQELENDCINYLSTLCPIKPIGPLFSNPSVRNGSSIRGDFMKVEDCIDWLNTRADSSVVYVSFGSIVYVKQEQITEIARGLADSGLSFLWAFKQPGIDMGLTPPSLPDGFLEEVKGRGKVVEWCSQEAVLSHPAVSCFMSHCGWNSTMEALSSGVPVAAFPIWGDQVTDAKFLVDEFKVGIRMCRGEADINKKVVTREEIARCLLAATSGPKAEELKRNALKWKKAAADSVGAGGSSDRNLEEFVGSIRKDVVGH
modifications: Lobelia erinus cv.Riviera Midnight Blue; Amino acid sequence of UDP-glucose hydroxycinnamic acid 1-O-glucosyltransferase

Columns and labels:
[1] = test system: 35-70% ammonium sulfate precipitate fraction of the protein extracted from butterfly pea petals; experiment: Examination of substrates: acyltransferase activity with butterfly pea petal protein fraction; format: biochemical, butterfly pea (Clitoria ternatea); conditions: for acyltransferase activity as acyl acceptor: acyl donor 1-O-p-coumaroyl-β-D-glucose; for acyltransferase activity as acyl donor: acyl receptor preternatin C5, specific activity order: sinapoyl, feruloyl, p-coumaroyl, caffeoyl glucose (highest first)
Method: (§1) A reaction solution (20 μl) containing 100 mM phosphate buffer (pH 6.5), 0.4 mM anthocyanin (4 μl), 0.5 mM 1-O-acyl-β-D-glucose (4 μl) and an enzyme solution (8 μl) was reacted at 30° C. The reaction was terminated by adding 4 μl of 1M aqueous hydrochloric acid solution. After addition of 24 μl of 5% acetonitrile containing 0.05 M TFA, the reaction solution was filtered with Millex-LH filter (Millipore) and then analyzed by HPLC by feeding a 10 μl aliquot.
(§2) HPLC analysis of anthocyanin acyltransferase reaction products were performed with Develosil ODS-UG-5 column (3.0 i.d.×250 mm; Nomura Chemical) at a column temperature of 35° C. Against an initial solvent that was 0.05 M trifluoroacetate (TFA)-containing 5% acetonitrile (MeCN) aqueous solution, 0.05 M TFA-containing 40% MeCN was added with a linear concentration gradient from 14 to 86% (20 min) and the reaction products were eluted at a flow rate of 0.5 ml/min. The reaction products were detected with PDA and their molecular weights were confirmed by LC-MS/MS.
In order to detect an enzyme activity of transferring an aromatic acyl group to the sugar residue of flavonoids using 1-O-acyl-β-D-glucose as an acyl donor, various types of 1-O-acyl-β-D-glucose and anthocyanin were examined. Briefly, enzyme activities were measured using 35-70% ammonium sulfate precipitate fraction of the protein extracted from butterfly pea petals as an enzyme solution, preternatin C5 as an acyl receptor, and various 1-O-acyl-β-D-glucoses as an acyl donor. […] Specific activity was higher in the following order: 1-O-sinapoyl-β-D-glucose, 1-O-feruloyl-β-D-glucose, 1-O-p-coumaroyl-β-D-glucose and 1-O-caffeoyl-β-D-glucose. Further, enzyme activities were measured using 1-O-p-coumaroyl-β-D-glucose as an acyl donor and various types of anthocyanin as an acyl acceptor.

[2] = Enzyme activity of recombinant CtSCPL1 protein expressed in Baculovirus-Sf9 insect cells; format: biochemical, butterfly pea (Clitoria ternatea)
Method: as §1, §2
Sf9 cells monolayer-cultured in complete Grace medium or Sf900II-SFM serum free medium (Gibco) in 6-well plates (3×10^6 cells) were infected with the recombinant virus at a multiplicity of infection (MOI) of 5-10. […] Enzyme reaction was performed using the thus concentrated protein solution, and the reaction product was analyzed by HPLC and LC-MS. […]

[3] = UDP-glucose:hydroxycinnamate 1-O-glucosyltransferase activity of recombinant proteins from E. coli; format: biochemical; conditions: against all four types of hydroxycinnamic acid used
Method: The transformed E. coli was shaking-cultured overnight in 3 ml of LB medium containing 50 μg/ml kanamycin and 34 μg/ml chloramphenicol. This culture broth (500 μl) was inoculated into LB medium (50 ml) and shaking-cultured until absorbance at 600 nm reached 0.4. Then, isopropyl-β-D-thiogalactoside (IPTG) was added to give a final concentration of 0.4 mM. The cells were shaking-cultured at 25° C. for 16 hr and then harvested by refrigerated centrifugation (8000 rpm, 4° C., 20 min). CtGT11-4 protein was partially purified from the cells using Ni-NTA mini-column according to the method recommended by the manufacturer. […]
For measuring enzyme activity, a 30 μl reaction solution containing 100 mM potassium phosphate buffer (pH 7.4), 30 pmole of UDP-glucose, 30 pmole of hydroxycinnamic acid and 15 μl of recombinant protein solution was reacted at 30° C. […] The enzyme reaction products were analyzed by reversed-phase high performance liquid chromatography (Shiseido NanoSpace system) using Develosil C30-UG-5 (1.5 i.d.×250 mm). […] The eluted materials were detected with a PDA detector, and the resultant data were analyzed to thereby quantitatively determine 1-O-acyl-β-D-glucose. […]
LeGT13-20 and LeGT13-30 genes were expressed using pET30Ek/LIC System (Novagen). […] Resultant several clones were analyzed to confirm the nucleotide sequences thereof, and then transformed into E. coli BL21-CodonPlus(DE3)-RP. […]

Row | Molecule | acyltransferase activity as acyl acceptor [1] | acyltransferase activity as acyl donor [1] | also measured
1 | OC[C@H]1O[C@@H](Oc2cc3c(O)cc(O)cc3[o+]c2-c2cc(O[C@@H]3O[C@H](CO)[C@@H](O)[C@H](O)[C@H]3O)c(O)c(O[C@@H]3O[C@H](CO)[C@@H](O)[C@H](O)[C@H]3O)c2)[C@H](O)[C@@H](O)[C@@H]1O [preternatin C5, delphinidin 3,3′,5′-triglucoside] | acyltransferase activity was detected |  | 
2 | O=C(O)CC(=O)OCC1OC(Oc2cc3c(O)cc(O)cc3[o+]c2-c2cc(O)c(O)c(OC3OC(CO)C(O)C(O)C3O)c2)C(O)C(O)C1O (stereo not shown) [delphinidin 3-(6-malonyl)glucoside-3′-glucoside] | acyltransferase activity was detected |  | 
3 | O=C(O)CC(=O)OC[C@H]1O[C@@H](Oc2cc3c(O)cc(O)cc3[o+]c2-c2cc(O[C@@H]3O[C@H](CO)[C@@H](O)[C@H](O)[C@H]3O)c(O)c(O[C@@H]3O[C@H](CO)[C@@H](O)[C@H](O)[C@H]3O)c2)[C@H](O)[C@@H](O)[C@@H]1O [ternatin C5, Delphinidin 3-(6-malonyl)glucoside 3′,5′-diglucoside] | acyltransferase activity was detected |  | 
4 | COc1cc(/C=C/C(=O)O[C@@H]2O[C@H](CO)[C@@H](O)[C@H](O)[C@H]2O)ccc1O [1-O-feruloyl-β-D-glucose] |  | acyltransferase activity was detected | 
5 | O=C(/C=C/c1ccc(O)cc1)O[C@@H]1O[C@H](CO)[C@@H](O)[C@H](O)[C@H]1O [1-O-p-coumaroyl-β-D-glucose] |  | acyltransferase activity was detected | 
6 | COc1cc(/C=C/C(=O)O[C@@H]2O[C@H](CO)[C@@H](O)[C@H](O)[C@H]2O)cc(OC)c1O [1-O-sinapoyl-β-D-glucose] |  | acyltransferase activity was detected | 
7 | O=C(/C=C/c1ccc(O)c(O)c1)O[C@@H]1O[C@H](CO)[C@@H](O)[C@H](O)[C@H]1O [1-O-caffeoyl-β-D-glucose] |  | acyltransferase activity was detected | 
8 | B1 |  |  | 3′AT activity ([2]; substrates preternatin C5 or delphinidin 3-(6-malonyl)glucoside-3′-glucoside and 1-O-feruloyl-β-D-glucose): 3′AT activity was confirmed; 3′AT activity ([2]; substrates ternatin C5 and 1-O-p-coumaroyl-β-D-glucose): 3′AT activity was also recognized
9 | B2 |  |  | glucosyltransferase activity [3]: glucosyltransferase activity was confirmed
